Results from paper PMC2193020 (The Journal of Experimental Medicine, 1999).
Ends that are not written are not given here.

Columns and labels:
I-A^s = target: T1, I-A^s (Mus musculus, UniProt P06345+P14437); experiment: Class II peptide binding assay on purified I-A^s molecules
T1 sequence (P14437 1-233): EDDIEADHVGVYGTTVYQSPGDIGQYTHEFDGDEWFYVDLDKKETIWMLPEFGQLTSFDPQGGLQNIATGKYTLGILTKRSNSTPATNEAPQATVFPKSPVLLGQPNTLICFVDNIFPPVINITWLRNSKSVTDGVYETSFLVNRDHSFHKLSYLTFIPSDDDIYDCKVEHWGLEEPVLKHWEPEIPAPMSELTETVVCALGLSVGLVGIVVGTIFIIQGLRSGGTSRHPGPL
T1 sequence (P06345 28-263): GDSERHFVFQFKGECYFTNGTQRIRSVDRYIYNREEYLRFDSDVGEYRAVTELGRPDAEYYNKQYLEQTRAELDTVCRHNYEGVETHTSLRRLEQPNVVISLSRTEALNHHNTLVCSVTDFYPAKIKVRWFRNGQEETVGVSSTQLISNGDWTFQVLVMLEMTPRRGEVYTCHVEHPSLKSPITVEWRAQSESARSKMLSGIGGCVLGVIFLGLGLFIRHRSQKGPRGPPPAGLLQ

[1] = tested on: MBP autoantibodies affinity-purified from CNS lesions; conditions: autoantibodies from CNS lesions of 12 postmortem MS cases; ref [19], [21]; cited from earlier work

Compound	IC50 (I-A^s) [nM]	Inhibition of autoantibody binding to MBP [1] [%]
CC(C)C[C@H](NC(=O)[C@H](CCCNC(=N)N)NC(=O)[C@H](CCCNC(=N)N)NC(=O)CNC(=O)CN)C(=O)N[C@@H](Cc1ccccc1)C(=O)N[C@@H](Cc1ccccc1)C(=O)N[C@H](C(=O)N[C@@H](CCCCN)C(=O)N[C@@H](C)C(=O)N[C@@H](Cc1c[nH]cn1)C(=O)N[C@H](C(=O)N[C@@H](CCCNC(=N)N)C(=O)N[C@@H](CCC(=O)O)C(=O)O)C(C)C)C(C)C [Herpes simplex DNA pol]	551	
CC[C@H](C)[C@H](NC(=O)[C@H](CC(N)=O)NC(=O)[C@H](CCCCN)NC(=O)[C@H](Cc1ccccc1)NC(=O)[C@H](Cc1ccccc1)NC(=O)[C@H](Cc1c[nH]cn1)NC(=O)[C@@H](NC(=O)[C@@H](NC(=O)[C@@H]1CCCN1C(=O)[C@H](CC(N)=O)NC(=O)[C@@H](N)CCC(=O)O)C(C)C)C(C)C)C(=O)N[C@H](C(=O)N[C@H](C(=O)N1CCC[C@H]1C(=O)N[C@@H](CCCNC(=N)N)C(=O)O)[C@@H](C)O)C(C)C [MBPp85–99, reference compound]	667	
IGGRVHFFKDISPIA [HPV 7]	208	
IGGRVHFFRDISPIG [HPV 40]	180	
VHFFKNIVTPRTP [MBPp87–99]		> 95
